# In US12350247B2, “Use of APE1/Ref-1 inhibitors for treatment of retinal diseases” (Indiana University Research and Technology Corporation, priority 2017, dated 2025):
# Assays:
# Panc10.05 = experiment: 3D tumor spheroid culture growth (fluorescence intensity); conditions: read-out: LC50; 3D Cultures, Tumor Alone, Panc10.05, D12 curves
# [1] = tested on: human adenocarcinoma colon suspension cell line Colo-201; experiment: Alamar blue cytotoxicity combination assay (CalcuSyn); format: cell-based
# Protocol: Colo-201 (Yunhua Liu) was seeded in a 96-well tissue culture plate at 2000 cells/well in RPMI+Sodium Pyruvate+10% FBS and grown overnight at 37° C., 5% CO2. 2× Drug Media RPMI+Sodium Pyruvate+5% FBS was added at dosages of APX3330 (Apexian) in a 5-point spread from 75 uM to 6.3 uM and spiked with CPI-613 (Apexbio Technology) at 75 uM, or 50 uM, or alone for single agent. Cells were incubated 72 hours at 37° C., 5% CO2 and then 10% Alamar blue fluorescent cell viability indicator (INVITROGEN™) was added directly to plate. Indicator was incubated 4 hours at 37° C., 5% CO2, and then read on a fluorescent reader (SYNERGY™ H4 BioTek). […] FIG. 31D depicts Chou-Talalay Index (CI) of dose combinations (CalcuSyn). FIG. 31E depicts synergistic drug combinations (CalcuSyn) of APX3330 spiked with 50 uM CPI-613 or 75 uM CPI-613. […] Data shown is the average of 3 separate cytotoxicity assays; each assay normalized to media only control.
# 10.05 cells = experiment: Intracellular pH assay (pHrodo Red AM) in hypoxic 10.05 cells; format: cell-based, human; conditions: 0.2% O2 48 hrs; up to 50 μM APX3330, 100 μM SLC-0111; 8 APX2009, 5 μM APX2014
# Text: Therefore, the APX3330 analogs, APX2009 and APX2014, were used to determine whether APE1/Ref-1 redox inhibition alone can shift intracellular pH in hypoxic PDAC cells given a sufficiently potent inhibitor.
# [2] = tested on: human carcinoma colon cell line HCT-116; experiment: Alamar blue cytotoxicity combination assay (CalcuSyn); format: cell-based
# Protocol: HTC-116 (Yunhua Liu) was seeded in a 96-well tissue culture plate at 2000 cells/well in DMEM+10% FBS and grown overnight at 37° C., 5% CO2. Drug Media DMEM+5% FBS was added at dosages of APX3330 (Apexian) in a 5-point spread from 75 uM to 6.3 uM and spiked with CPI-613 (Apexbio Technology) at 75 uM, or 50 uM, or alone for single agent. Cells were incubated for 72 hours at 37° C., 5% CO2. Media was exchanged with DMEM+5% FBS+10% Alamar blue fluorescent cell viability indicator (INVITROGEN™) and incubated 4 hours at 37° C., 5% CO2 and then read on a fluorescent reader (SYNERGY™ H4 BioTek). […] depicts Chou-Talalay Index (CI) of dose combinations (CalcuSyn). FIG. 32E depicts synergistic drug combinations (CalcuSyn) of APX3330 spiked with 50 uM CPI-613 or 75 uM CPI-613. […] Data shown is the average of 3 separate cytotoxicity assays; each assay normalized to media only control.
# HTC-116 (Yunhua Liu) was seeded in a 96-well tissue culture plate at 2000 cells/well in DMEM+10% FBS and grown overnight at 37° C., 5% CO2. Drug Media DMEM+5% FBS was added at dosages of APX3330 (Apexian) from 100 uM to 0.4 uM in a 10-point spread and spiked with CPI-613 (Apexbio Technology) at 100 uM, or 75 uM, or alone for single agent. Cells were incubated for 72 hours at 37° C., 5% CO2. Media was exchanged with DMEM+5% FBS+10% Alamar blue fluorescent cell viability indicator (INVITROGEN™) and incubated 4 hours at 37° C., 5% CO2 and then read on a fluorescent reader (SYNERGY™ H4 BioTek). […] FIG. 33D depicts Chou-Talalay Index (CI) of dose combinations (CalcuSyn). FIG. 33E depicts synergistic drug combinations (CalcuSyn) of APX3330 spiked with 100 uM CPI-613 or 75 uM CPI-613. […] Data shown is the average of 3 separate cytotoxicity assays; each assay normalized to media only control.
# HTC-116 (Yunhua Liu) was seeded in a 96-well tissue culture plate at 2000 cells/well in DMEM+10% FBS and grown overnight at 37° C., 5% CO2. Drug Media DMEM+5% FBS was added at dosages of APX2014 (Apexian) in a 5-point spread from 25 uM to 1.6 uM and spiked with CPI-613 (Apexbio Technology) at 75 uM, or 50 uM, or alone for single agent. Cells were incubated for 72 hours at 37° C., 5% CO2. Media was exchanged with DMEM+5% FBS+10% Alamar blue fluorescent cell viability indicator (INVITROGEN™) and incubated 4 hours at 37° C., 5% CO2 and then read on a fluorescent reader (SYNERGY™ H4 BioTek). […] FIG. 34D depicts Chou-Talalay Index (CI) of dose combinations (CalcuSyn). FIG. 34E depicts synergistic drug combinations (CalcuSyn) of APX2014 spiked with 50 uM CPI-613 or 75 uM CPI-613. Drug combination synergy could not be ascertained at APX2014 dosages when spiked with 50 uM CPI-613. […] Data shown is the average of 3 separate cytotoxicity assays; each assay normalized to media only control.
# HTC-116 (Yunhua Liu) was seeded in a 96-well tissue culture plate at 2000 cells/well in DMEM+10% FBS and grown overnight at 37° C., 5% CO2. Drug Media DMEM+5% FBS was added at dosages of APX3330 (Apexian) from 100 uM to 0.4 uM in a 10-point spread and spiked with CB-839 (Sigma-Aldrich) at 1000 nM, or 500 nM, or alone for single agent. Cells were incubated for 72 hours at 37° C., 5% CO2. Media was exchanged with DMEM+5% FBS+10% Alamar blue fluorescent cell viability indicator (INVITROGEN™) and incubated 4 hours at 37° C., 5% CO2 and then read on a fluorescent reader (SYNERGY™ H4 BioTek). FIG. 35A depicts APX3330 and CB-839 single agent effects. FIG. 35B depicts APX3330 and CB-839 synergistic combo effects. […] FIG. 35E depicts synergistic drug combinations (CalcuSyn) of APX3330 spiked with 1000 nM CB-839 or 500 nM CB-839 (5-pt only). […] Data shown is the average of 3 separate cytotoxicity assays; each assay normalized to media only control.
# murine KPC cells = experiment: Alamar blue proliferation-based assay; format: cell-based; conditions: 3 days incubation
smiles,measurement,setting,value
CCCCCCCCC/C(=C\C1=C(C)C(=O)C(OC)=C(OC)C1=O)C(=O)O [APX3330],CC50,Panc10.05,44.5 µM
same,"drug combination synergy (Chou-Talalay, CalcuSyn)","[1]; APX3330 75 uM and 50 uM spiked with 50 uM CPI-613, 72 hours",synergy was observed
same,"drug combination synergy (Chou-Talalay, CalcuSyn)","[1]; all but one APX3330 dosage (6.3 uM), spiked with 75 uM CPI-613, 72 hours",Synergy was observed
same,effect on intracellular pH as single agent,10.05 cells,did not affect
same,"drug combination synergy (Chou-Talalay, CalcuSyn)","[2]; APX3330 75 uM and 50 uM spiked with 50 uM CPI-613, 5-point spread",synergy was observed
same,"drug combination synergy (Chou-Talalay, CalcuSyn)","[2]; APX3330 100 uM-12.5 uM spiked with 75 uM CPI-613, 10-point spread",Synergy was observed
same,"drug combination synergy (Chou-Talalay, CalcuSyn)",[2]; APX3330 100 uM-25 uM spiked with 1000 nM CB-839,synergy was observed
same,"drug combination synergy (Chou-Talalay, CalcuSyn)",[2]; APX3330 100 uM-50 uM spiked with 500 nM CB-839,Synergy was observed
same,"drug combination synergy (Chou-Talalay, CalcuSyn)","[2]; all APX3330 dosages (100 uM to 0.4 uM) spiked with 100 uM CPI-613, 10-point spread",synergy was observed
same,"drug combination synergy (Chou-Talalay, CalcuSyn)","[2]; all but one APX3330 dosage (6.3 uM), spiked with 75 uM CPI-613, 5-point spread",Synergy was observed
same,cytotoxicity in combination with Napabucasin,murine KPC cells,enhancement of Napa-induced cytotoxicity
